From US20160361250A1, “ACTIVE INGREDIENTS STIMULATING TYPE 2 AND/OR TYPE 3 HUMAN BETA-DEFENSINS AND COSMETIC OR PHARMACEUTICAL COMPOSITIONS CONTAINING SUCH ACTIVE INGREDIENTS” (BASF Beauty Care Solutions France S.A.S., priority 2002, published 2016)

Experiments:
hBD3 = assay: Quantitative RT-PCR of hBD3 expression, 2nd step (dose-effect); format: cell-based, human; conditions: for hBD3 expression, percentage of the control: 16 h, untreated control = 100%
Protocol: (§1) The actives are then tested on 5 concentrations (from 0.001% to max viability) in quadruplicate on normal human keratinocytes as a monolayer on 96-well culture plates, in a specific medium enriched with calcium and free of serum (CaCl2 1.7 mM) (same conditions as in example 1).
(§2) After 16 h, the supernatants are collected and cells are dry frozen at −80° C. after rinsing in PBS.
(§3) Total RNA are extracted using a 96-well extraction kit on silica columns and assayed using a 96-well spectrophotometer at 260 and 280 nm. RNA are diluted to 5 ng/μL.
(§4) Quantitative RT-PCR in 96 wells on actin, hBD2 and hBD3 is initially carried out on 50 ng of RNA, using a one-step kit containing Sybrgreen, in a fluorescence thermocycler with the same primers as previously (0.5 μM). The amplification program is as follows: 50° C., 30 min; 94° C., 15 min; (94° C., 15 s; 60° C., 30 s; 72° C., 30 s)×50 cycles; 90° C., 1 min; 30° C., 1 min; 50° C. to 95° C. (10 s every ° C.); 14° C., infinite.
(§5) A study of the fusion graphs makes it possible to verify the specificity of amplified products. The fluorescence graph as a function of the number of cycles gives the C(T) value corresponding to the number of cycles needed to obtain initiation of the fluorescence signal. The more an mRNA is expressed, the lower the C(T) value. Calculation of Sgene=(½)^C(T) for each RNA takes into consideration the exponential increase in the number of copies during amplification. The Sgene hBD2/Sgene actin and Sgene hBD3/Sgene actin ratios can be compared with those of the untreated control to give the percentage stimulation produced.
(§6) Quantitative RT-PCR makes it possible to obtain a basal value for the defensin expression for untreated controls. The results are therefore expressed as a percentage of the control. IL8, IL1 and MIP3 cytokine levels are given as pg/mL/RNA concentration (in ng/μL).
(§7) In the same way as in example 2, retinoic acid and retinol were tested for their capacity to stimulate hBD2 and/or hBD3.

hBD2 = assay: Quantitative RT-PCR of hBD2 expression, 2nd step (dose-effect); format: cell-based, human; conditions: for hBD2 expression, percentage of the control: 16 h, untreated control = 100%
Protocol: as §1, §2, §3, §4, §5, §6, §7

human volunteers = conditions: in vivo
animals = conditions: in vivo

Row | SMILES | effect on hBD3 (in words) (hBD3; 0.01%) | hBD3 expression, percentage of the control (hBD3; conc. 0.01%) | effect on hBD2 (in words) (hBD2; 0.01%) | hBD2 expression, percentage of the control (hBD2; conc. 0.01%) | irritation / allergy, irritant or sensitizing potential (in words) (human volunteers) | irritation / allergy, primary skin irritation (in words) (animals) | hBD3 expression, percentage of the control (hBD3; conc. 0.005%) | hBD2 expression, percentage of the control (hBD2; conc. 0.005%)
1 | CC1=C(/C=C/C(C)=C/C=C/C(C)=C/CO)C(C)(C)CCC1 [Retinol] | strongly stimulates hBD3 | 17 562% | weakly stimulates hBD2 | 168% | not inducing any inflammatory, irritation or intolerance reaction | not inducing any inflammatory, irritation or intolerance reaction | – | –
2 | CC1=C(/C=C/C(C)=C/C=C/C(C)=C/C(=O)O)C(C)(C)CCC1 [Retinoic acid] | – | – | – | – | not inducing any inflammatory, irritation or intolerance reaction | not inducing any inflammatory, irritation or intolerance reaction | 161% | 26%
